Measurements reported in patent publication EP3041353B1, “COMPOSITIONS COMPRISING BACTERIOSTATIC AGENTS AND BRILLIANT BLUE G” (priority 2013, dated 2015).

How the values were obtained:
Experiment in all cases: Bacteriostatic effect of Octenidin with BBG: turbidity after 24 h incubation
Type in all cases: cell-based
Escherichia coli DH5α = tested on: Escherichia coli DH5α; parameters: key: +: Bakterienwachstum nach 24 h Inkubation; -: kein Bakterienwachstum nach 24 h Inkubation
Description: (§1) Zur Untersuchung des Einflusses von BBG auf die bakteriostatische Wirkung wurden Bakterien 24 h mit erfindungsgemäßen Zusammensetzungen, Benzalkoniumchlorid (BAK) und Octenidin (Oct) als Bakteriostatikum enthielten, inkubiert. Wenn sich die Inkubationsmischung trübte, wurde das als Bakterienwachstum interpretiert. Zum Vergleich wurde Brillantblau R (BBR) anstelle von BBG eingesetzt. Die Ergebnisse sind in den Tabellen 1-4 wiedergegeben. Tabelle 1: Einfluss von BBG und BBR auf die bakteriostatische Wirkung von BAK gegenüber Escherichia coli (E. coli), + = Bakterienwachstum nach 24 h Inkubation, - = kein Bakterienwachstum nach 24 h Inkubation, R = Brillantblau R (BBR), G = Brillantblau G (BBG).
(§2) Gram-negative Bakterien (hier E. coli) sind widerstandsfähiger als Gram-positive Bakterien (hier Bacillus sp.) und wachsen konzentrationsabhängig. […] Tabelle 3: Einfluss von BBG auf die bakteriostatische Wirkung von Octenidin (Oct) gegenüber Gram-negativen Bakterien., + = Bakterienwachstum nach 24 h Inkubation, - = kein Bakterienwachstum nach 24 h Inkubation, BBG = Brillantblau G.

[1] = tested on: Pseudomonas putida DSM 291; parameters: key: +: Bakterienwachstum nach 24 h Inkubation; -: kein Bakterienwachstum nach 24 h Inkubation
Description: as §1, §2

Bacillus megaterium [2] = tested on: Bacillus megaterium; parameters: key: +: Bakterienwachstum nach 24 h Inkubation; -: kein Bakterienwachstum nach 24 h Inkubation
Description: as §1
(§3) Tabelle 4: Einfluss von BBG auf die bakteriostatische Wirkung von Octenidin (Oct) gegenüber Gram-positiven Bakterien., + = Bakterienwachstum nach 24 h Inkubation, - = kein Bakterienwachstum nach 24 h Inkubation, +/- = geringes Wachstum nach 24 h Inkubation, BBG = Brillantblau G.

Bacillus subtilis = tested on: Bacillus subtilis; parameters: key: +: Bakterienwachstum nach 24 h Inkubation; -: kein Bakterienwachstum nach 24 h Inkubation
Description: as §1, §3

[3] = tested on: Clavibacter michiganensis; parameters: key: +: Bakterienwachstum nach 24 h Inkubation; -: kein Bakterienwachstum nach 24 h Inkubation
Description: as §1, §3

Bacillus megaterium [4] = tested on: Bacillus megaterium; parameters: key: +: Bakterienwachstum nach 24 h Inkubation; -: kein Bakterienwachstum nach 24 h Inkubation; +/-: geringes Wachstum nach 24 h Inkubation
Description: as §1, §3

CCOc1ccc(Nc2ccc(C(=C3C=CC(=[N+](CC)Cc4cccc(S(=O)(=O)[O-])c4)C=C3C)c3ccc(N(CC)Cc4cccc(S(=O)(=O)O)c4)cc3C)cc2)cc1 [BBG, Brillantblau G]
Bakterienwachstum nach 24 h Inkubation (Escherichia coli DH5α; 0,007% BBG + Octenidin 0,01%): - | Bakterienwachstum nach 24 h Inkubation (Escherichia coli DH5α; 0,007% BBG + Octenidin 0,002%): + | Bakterienwachstum nach 24 h Inkubation (Escherichia coli DH5α; 0,007% BBG + Octenidin 0,003%): - | Bakterienwachstum nach 24 h Inkubation (Escherichia coli DH5α; 0,007% BBG + Octenidin 0,005%): - | Bakterienwachstum nach 24 h Inkubation (Escherichia coli DH5α; 0,007% BBG + Octenidin 0,007%): - | Bakterienwachstum nach 24 h Inkubation (Escherichia coli DH5α; 0,007% BBG + Octenidin 0,009%): - | Bakterienwachstum nach 24 h Inkubation (Escherichia coli DH5α; 0,007% BBG, Octenidin 0%): + | Bakterienwachstum nach 24 h Inkubation (Escherichia coli DH5α; 0,015% BBG + Octenidin 0,01%): - | Bakterienwachstum nach 24 h Inkubation (Escherichia coli DH5α; 0,015% BBG + Octenidin 0,002%): + | Bakterienwachstum nach 24 h Inkubation (Escherichia coli DH5α; 0,015% BBG + Octenidin 0,003%): + | Bakterienwachstum nach 24 h Inkubation (Escherichia coli DH5α; 0,015% BBG + Octenidin 0,005%): + | Bakterienwachstum nach 24 h Inkubation (Escherichia coli DH5α; 0,015% BBG + Octenidin 0,007%): - | Bakterienwachstum nach 24 h Inkubation (Escherichia coli DH5α; 0,015% BBG + Octenidin 0,009%): - | Bakterienwachstum nach 24 h Inkubation (Escherichia coli DH5α; 0,015% BBG, Octenidin 0%): + | Bakterienwachstum nach 24 h Inkubation (Escherichia coli DH5α; 0,030% BBG + Octenidin 0,01%): + | Bakterienwachstum nach 24 h Inkubation (Escherichia coli DH5α; 0,030% BBG + Octenidin 0,002%): + | Bakterienwachstum nach 24 h Inkubation (Escherichia coli DH5α; 0,030% BBG + Octenidin 0,003%): + | Bakterienwachstum nach 24 h Inkubation (Escherichia coli DH5α; 0,030% BBG + Octenidin 0,005%): + | Bakterienwachstum nach 24 h Inkubation (Escherichia coli DH5α; 0,030% BBG + Octenidin 0,007%): + | Bakterienwachstum nach 24 h Inkubation (Escherichia coli DH5α; 0,030% BBG + Octenidin 0,009%): + | Bakterienwachstum nach 24 h Inkubation (Escherichia coli DH5α; 0,030% BBG, Octenidin 0%): + | Bakterienwachstum nach 24 h Inkubation ([1]; 0,007% BBG + Octenidin 0,01%): - | Bakterienwachstum nach 24 h Inkubation ([1]; 0,007% BBG + Octenidin 0,002%): + | Bakterienwachstum nach 24 h Inkubation ([1]; 0,007% BBG + Octenidin 0,003%): - | Bakterienwachstum nach 24 h Inkubation ([1]; 0,007% BBG + Octenidin 0,005%): - | Bakterienwachstum nach 24 h Inkubation ([1]; 0,007% BBG + Octenidin 0,007%): - | Bakterienwachstum nach 24 h Inkubation ([1]; 0,007% BBG + Octenidin 0,009%): - | Bakterienwachstum nach 24 h Inkubation ([1]; 0,007% BBG, Octenidin 0%): + | Bakterienwachstum nach 24 h Inkubation ([1]; 0,015% BBG + Octenidin 0,01%): - | Bakterienwachstum nach 24 h Inkubation ([1]; 0,015% BBG + Octenidin 0,002%): + | Bakterienwachstum nach 24 h Inkubation ([1]; 0,015% BBG + Octenidin 0,003%): + | Bakterienwachstum nach 24 h Inkubation ([1]; 0,015% BBG + Octenidin 0,005%): + | Bakterienwachstum nach 24 h Inkubation ([1]; 0,015% BBG + Octenidin 0,007%): - | Bakterienwachstum nach 24 h Inkubation ([1]; 0,015% BBG + Octenidin 0,009%): - | Bakterienwachstum nach 24 h Inkubation ([1]; 0,015% BBG, Octenidin 0%): + | Bakterienwachstum nach 24 h Inkubation ([1]; 0,030% BBG + Octenidin 0,01%): + | Bakterienwachstum nach 24 h Inkubation ([1]; 0,030% BBG + Octenidin 0,002%): + | Bakterienwachstum nach 24 h Inkubation ([1]; 0,030% BBG + Octenidin 0,003%): + | Bakterienwachstum nach 24 h Inkubation ([1]; 0,030% BBG + Octenidin 0,005%): + | Bakterienwachstum nach 24 h Inkubation ([1]; 0,030% BBG + Octenidin 0,007%): + | Bakterienwachstum nach 24 h Inkubation ([1]; 0,030% BBG + Octenidin 0,009%): + | Bakterienwachstum nach 24 h Inkubation ([1]; 0,030% BBG, Octenidin 0%): + | Bakterienwachstum nach 24 h Inkubation (Bacillus megaterium [2]; 0,007% BBG + Octenidin 0,01%): - | Bakterienwachstum nach 24 h Inkubation (Bacillus megaterium [2]; 0,007% BBG + Octenidin 0,002%): - | Bakterienwachstum nach 24 h Inkubation (Bacillus megaterium [2]; 0,007% BBG + Octenidin 0,003%): - | Bakterienwachstum nach 24 h Inkubation (Bacillus megaterium [2]; 0,007% BBG + Octenidin 0,005%): - | Bakterienwachstum nach 24 h Inkubation (Bacillus megaterium [2]; 0,007% BBG + Octenidin 0,007%): - | Bakterienwachstum nach 24 h Inkubation (Bacillus megaterium [2]; 0,007% BBG + Octenidin 0,009%): - | Bakterienwachstum nach 24 h Inkubation (Bacillus megaterium [2]; 0,007% BBG, Octenidin 0%): + | Bakterienwachstum nach 24 h Inkubation (Bacillus megaterium [2]; 0,015% BBG + Octenidin 0,01%): - | Bakterienwachstum nach 24 h Inkubation (Bacillus megaterium [2]; 0,015% BBG + Octenidin 0,002%): + | Bakterienwachstum nach 24 h Inkubation (Bacillus megaterium [2]; 0,015% BBG + Octenidin 0,005%): - | Bakterienwachstum nach 24 h Inkubation (Bacillus megaterium [2]; 0,015% BBG + Octenidin 0,007%): - | Bakterienwachstum nach 24 h Inkubation (Bacillus megaterium [2]; 0,015% BBG + Octenidin 0,009%): - | Bakterienwachstum nach 24 h Inkubation (Bacillus megaterium [2]; 0,015% BBG, Octenidin 0%): + | Bakterienwachstum nach 24 h Inkubation (Bacillus megaterium [2]; 0,030% BBG + Octenidin 0,01%): - | Bakterienwachstum nach 24 h Inkubation (Bacillus megaterium [2]; 0,030% BBG + Octenidin 0,002%): + | Bakterienwachstum nach 24 h Inkubation (Bacillus megaterium [2]; 0,030% BBG + Octenidin 0,003%): + | Bakterienwachstum nach 24 h Inkubation (Bacillus megaterium [2]; 0,030% BBG + Octenidin 0,009%): - | Bakterienwachstum nach 24 h Inkubation (Bacillus megaterium [2]; 0,030% BBG, Octenidin 0%): + | Bakterienwachstum nach 24 h Inkubation (Bacillus subtilis; 0,007% BBG + Octenidin 0,01%): - | Bakterienwachstum nach 24 h Inkubation (Bacillus subtilis; 0,007% BBG + Octenidin 0,002%): + | Bakterienwachstum nach 24 h Inkubation (Bacillus subtilis; 0,007% BBG + Octenidin 0,003%): - | Bakterienwachstum nach 24 h Inkubation (Bacillus subtilis; 0,007% BBG + Octenidin 0,005%): - | Bakterienwachstum nach 24 h Inkubation (Bacillus subtilis; 0,007% BBG + Octenidin 0,007%): - | Bakterienwachstum nach 24 h Inkubation (Bacillus subtilis; 0,007% BBG + Octenidin 0,009%): - | Bakterienwachstum nach 24 h Inkubation (Bacillus subtilis; 0,007% BBG, Octenidin 0%): + | Bakterienwachstum nach 24 h Inkubation (Bacillus subtilis; 0,015% BBG + Octenidin 0,01%): - | Bakterienwachstum nach 24 h Inkubation (Bacillus subtilis; 0,015% BBG + Octenidin 0,002%): + | Bakterienwachstum nach 24 h Inkubation (Bacillus subtilis; 0,015% BBG + Octenidin 0,003%): + | Bakterienwachstum nach 24 h Inkubation (Bacillus subtilis; 0,015% BBG + Octenidin 0,005%): - | Bakterienwachstum nach 24 h Inkubation (Bacillus subtilis; 0,015% BBG + Octenidin 0,007%): - | Bakterienwachstum nach 24 h Inkubation (Bacillus subtilis; 0,015% BBG + Octenidin 0,009%): - | Bakterienwachstum nach 24 h Inkubation (Bacillus subtilis; 0,015% BBG, Octenidin 0%): + | Bakterienwachstum nach 24 h Inkubation (Bacillus subtilis; 0,030% BBG + Octenidin 0,01%): - | Bakterienwachstum nach 24 h Inkubation (Bacillus subtilis; 0,030% BBG + Octenidin 0,002%): + | Bakterienwachstum nach 24 h Inkubation (Bacillus subtilis; 0,030% BBG + Octenidin 0,003%): + | Bakterienwachstum nach 24 h Inkubation (Bacillus subtilis; 0,030% BBG + Octenidin 0,005%): + | Bakterienwachstum nach 24 h Inkubation (Bacillus subtilis; 0,030% BBG + Octenidin 0,007%): + | Bakterienwachstum nach 24 h Inkubation (Bacillus subtilis; 0,030% BBG + Octenidin 0,009%): - | Bakterienwachstum nach 24 h Inkubation (Bacillus subtilis; 0,030% BBG, Octenidin 0%): + | Bakterienwachstum nach 24 h Inkubation ([3]; 0,007% BBG + Octenidin 0,01%): - | Bakterienwachstum nach 24 h Inkubation ([3]; 0,007% BBG + Octenidin 0,002%): + | Bakterienwachstum nach 24 h Inkubation ([3]; 0,007% BBG + Octenidin 0,003%): - | Bakterienwachstum nach 24 h Inkubation ([3]; 0,007% BBG + Octenidin 0,005%): - | Bakterienwachstum nach 24 h Inkubation ([3]; 0,007% BBG + Octenidin 0,007%): - | Bakterienwachstum nach 24 h Inkubation ([3]; 0,007% BBG + Octenidin 0,009%): - | Bakterienwachstum nach 24 h Inkubation ([3]; 0,007% BBG, Octenidin 0%): + | Bakterienwachstum nach 24 h Inkubation ([3]; 0,015% BBG + Octenidin 0,01%): - | Bakterienwachstum nach 24 h Inkubation ([3]; 0,015% BBG + Octenidin 0,002%): + | Bakterienwachstum nach 24 h Inkubation ([3]; 0,015% BBG + Octenidin 0,003%): + | Bakterienwachstum nach 24 h Inkubation ([3]; 0,015% BBG + Octenidin 0,005%): - | Bakterienwachstum nach 24 h Inkubation ([3]; 0,015% BBG + Octenidin 0,007%): - | Bakterienwachstum nach 24 h Inkubation ([3]; 0,015% BBG + Octenidin 0,009%): - | Bakterienwachstum nach 24 h Inkubation ([3]; 0,015% BBG, Octenidin 0%): + | Bakterienwachstum nach 24 h Inkubation ([3]; 0,030% BBG + Octenidin 0,01%): - | Bakterienwachstum nach 24 h Inkubation ([3]; 0,030% BBG + Octenidin 0,002%): + | Bakterienwachstum nach 24 h Inkubation ([3]; 0,030% BBG + Octenidin 0,003%): + | Bakterienwachstum nach 24 h Inkubation ([3]; 0,030% BBG + Octenidin 0,005%): + | Bakterienwachstum nach 24 h Inkubation ([3]; 0,030% BBG + Octenidin 0,007%): + | Bakterienwachstum nach 24 h Inkubation ([3]; 0,030% BBG + Octenidin 0,009%): - | Bakterienwachstum nach 24 h Inkubation ([3]; 0,030% BBG, Octenidin 0%): + | Bakterienwachstum nach 24 h Inkubation (Bacillus megaterium [4]; 0,015% BBG + Octenidin 0,003%): +/- | Bakterienwachstum nach 24 h Inkubation (Bacillus megaterium [4]; 0,030% BBG + Octenidin 0,005%): +/- | Bakterienwachstum nach 24 h Inkubation (Bacillus megaterium [4]; 0,030% BBG + Octenidin 0,007%): +/-
